Data published in ChEMBL document CHEMBL1132875, “Bicyclic pyridones as potent, efficacious and orally bioavailable thrombin inhibitors” (Bioorg Med Chem Lett, 2000).

Tests used:
Serine protease 1 = Serine protease 1 (Homo sapiens, UniProt P07477); experiment: The compound was tested for its ability to inhibit trypsin.
Prothrombin = Prothrombin (Homo sapiens, UniProt P00734); experiment: The compound was tested for its ability to inhibit thrombin.
[1] = The compound was tested in vitro for its anticoagulant potency (2x APTT) of human plasma; assay type: functional
[2] = Oral absorption kinetics (AUC) was determined after administration of compound orally at 1 mg/kg in dogs; assay type: ADME, organism-based, Canis lupus familiaris; set-up: dose 1 mg/kg, route oral; details: dog, in vivo
[3] = Cmax in dog plasma after 1mg/kg oral dose; assay type: ADME, organism-based, Canis lupus familiaris; set-up: dose 1 mg/kg, route oral
[4] = Maximum time taken for oral absorption was determined after oral administration at 1 mg/kg in dogs; assay type: ADME, organism-based, Canis lupus familiaris; set-up: dose 1 mg/kg, route oral; details: dog, in vivo
[5] = (§1) Half life was determined after oral administration at 1 mg/kg in dogs; assay type: ADME, organism-based, Canis lupus familiaris; set-up: dose 1 mg/kg, route oral; details: dog, in vivo
Rattus norvegicus [6] = experiment: Final plasma concentration when 10 ug/kg/min compound administered intravenously in rat; assay type: ADME, organism-based; details: in vivo, iv, 0.01 mg/kg
Rattus norvegicus [7] = experiment: Compound was tested in vivo for its antithrombotic efficacy in six rats upon intravenous administration of 10 ug/kg/min dose and activity expressed as number of occlusions
Rattus norvegicus [8] = experiment: Compound was tested in vivo for its antithrombotic efficacy in six rats upon intravenous administration of 3 ug/kg/min dose and activity expressed as number of occlusions; assay type: functional
Rattus norvegicus [9] = experiment: Final plasma concentration when 3 ug/kg/min compound administered intravenously in rat; assay type: ADME, organism-based; details: in vivo, iv, 0.003 mg/kg
Rattus norvegicus [10] = experiment: Compound was tested in vivo for its antithrombotic efficacy in six rats upon intravenous administration of 10 ug/kg/min dose and activity expressed as number of occlusions; assay type: functional
Canis familiaris = experiment: as §1; assay type: ADME, organism-based, Canis lupus familiaris; set-up: dose 1 mg/kg, route oral; details: dog, in vivo

Chain of Serine protease 1 (P07477 whole entry): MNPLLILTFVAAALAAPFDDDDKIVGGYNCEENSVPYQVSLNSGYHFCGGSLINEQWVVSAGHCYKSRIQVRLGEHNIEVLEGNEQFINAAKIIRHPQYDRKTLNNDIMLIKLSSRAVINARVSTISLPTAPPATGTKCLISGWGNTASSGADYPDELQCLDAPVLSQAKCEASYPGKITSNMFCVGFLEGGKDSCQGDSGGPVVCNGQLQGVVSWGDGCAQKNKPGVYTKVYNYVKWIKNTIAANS

SMILES | Ki (Serine protease 1) | Ki (Prothrombin) | Concentration doubling APTT [1] | other results
CCC[C@H]1Cc2cc(C)n(CC(=O)NCc3ccc(N)nc3C)c(=O)c2NC1=O | 22000 nM | 36 nM |  | 
Cc1nc(N)ccc1CNC(=O)Cn1c(C)cc2c(c1=O)NC(=O)CC2 | 101000 nM |  |  | 
Cc1nc(N)ccc1CNC(=O)Cn1c(C)cc2c(c1=O)NC(=O)C(CC(C)C)(CC(C)C)C2 |  |  | 390 nM | 
Cc1nc(N)ccc1CNC(=O)Cn1c(C)cc2c(c1=O)NC(=O)[C@](C)(CC(C)C)C2 | 860 nM |  | 160 nM | AUC [2]: 2.97 µM·h; Cmax [3]: 1370 nM; Tmax [4]: 0.5 h; half-life [5]: 1.5 h
Cc1nc(N)ccc1CNC(=O)Cn1c(C)cc2c(c1=O)NC(=O)[C@H](CC(C)C)C2 | 580 nM | 0.4 nM | 220 nM | concentration (Rattus norvegicus [6]): 255 nM; AUC [2]: 0.75 µM·h; Cmax [3]: 180 nM; Tmax [4]: 1.17 h; Activity (Rattus norvegicus [7]): 0; half-life [5]: 2.35 h
Cc1nc(N)ccc1CNC(=O)Cn1c(C)cc2c(c1=O)NC(=O)[C@H](CC1CC1)C2 | 770 nM | 0.21 nM | 150 nM | Activity (Rattus norvegicus [8]): 1; concentration (Rattus norvegicus [9]): 185 nM
Cc1nc(N)ccc1CNC(=O)Cn1c(C)cc2c(c1=O)NC(=O)[C@H](CC1CCC1)C2 | 420 nM |  | 190 nM | Activity (Rattus norvegicus [10]): 0; concentration (Rattus norvegicus [6]): 596 nM
CC[C@@H]1Cc2cc(C)n(CC(=O)NCc3ccc(N)nc3C)c(=O)c2NC1=O | 4200 nM | 1.6 nM | 310 nM | 
Cc1nc(N)ccc1CNC(=O)Cn1c(C)ccc(NS(=O)(=O)Cc2ccccc2)c1=O [L-374087] |  |  |  | AUC [2]: 4.42 µM·h; T1/2 (Canis familiaris): 2.57 h
Cc1nc(N)ccc1CNC(=O)Cn1c(C)cc2c(c1=O)NC(=O)[C@H](Cc1ccccc1)C2 | 12700 nM |  | 200 nM | 
CCC[C@@H]1Cc2cc(C)n(CC(=O)NCc3ccc(N)nc3C)c(=O)c2NC1=O | 510 nM | 0.33 nM | 180 nM | 
